{
  "source": "patent US8959984B2",
  "about": "“Proteome-wide quantification of small molecule binding to cellular target proteins” (priority 2007, dated 2015)",
  "assay_in_all_cases": "binding to VI16742 beads (HeLa lysate, SILAC MS)",
  "key": {"[1]": {"target": "T1, CHED (CDC2L5, IPI00456970) (Homo sapiens, UniProt Q14004)", "T1 construct": "endogenous in cells; host or cells: HeLa S3 cell lysate", "T1 sequence (Q14004 whole entry)": "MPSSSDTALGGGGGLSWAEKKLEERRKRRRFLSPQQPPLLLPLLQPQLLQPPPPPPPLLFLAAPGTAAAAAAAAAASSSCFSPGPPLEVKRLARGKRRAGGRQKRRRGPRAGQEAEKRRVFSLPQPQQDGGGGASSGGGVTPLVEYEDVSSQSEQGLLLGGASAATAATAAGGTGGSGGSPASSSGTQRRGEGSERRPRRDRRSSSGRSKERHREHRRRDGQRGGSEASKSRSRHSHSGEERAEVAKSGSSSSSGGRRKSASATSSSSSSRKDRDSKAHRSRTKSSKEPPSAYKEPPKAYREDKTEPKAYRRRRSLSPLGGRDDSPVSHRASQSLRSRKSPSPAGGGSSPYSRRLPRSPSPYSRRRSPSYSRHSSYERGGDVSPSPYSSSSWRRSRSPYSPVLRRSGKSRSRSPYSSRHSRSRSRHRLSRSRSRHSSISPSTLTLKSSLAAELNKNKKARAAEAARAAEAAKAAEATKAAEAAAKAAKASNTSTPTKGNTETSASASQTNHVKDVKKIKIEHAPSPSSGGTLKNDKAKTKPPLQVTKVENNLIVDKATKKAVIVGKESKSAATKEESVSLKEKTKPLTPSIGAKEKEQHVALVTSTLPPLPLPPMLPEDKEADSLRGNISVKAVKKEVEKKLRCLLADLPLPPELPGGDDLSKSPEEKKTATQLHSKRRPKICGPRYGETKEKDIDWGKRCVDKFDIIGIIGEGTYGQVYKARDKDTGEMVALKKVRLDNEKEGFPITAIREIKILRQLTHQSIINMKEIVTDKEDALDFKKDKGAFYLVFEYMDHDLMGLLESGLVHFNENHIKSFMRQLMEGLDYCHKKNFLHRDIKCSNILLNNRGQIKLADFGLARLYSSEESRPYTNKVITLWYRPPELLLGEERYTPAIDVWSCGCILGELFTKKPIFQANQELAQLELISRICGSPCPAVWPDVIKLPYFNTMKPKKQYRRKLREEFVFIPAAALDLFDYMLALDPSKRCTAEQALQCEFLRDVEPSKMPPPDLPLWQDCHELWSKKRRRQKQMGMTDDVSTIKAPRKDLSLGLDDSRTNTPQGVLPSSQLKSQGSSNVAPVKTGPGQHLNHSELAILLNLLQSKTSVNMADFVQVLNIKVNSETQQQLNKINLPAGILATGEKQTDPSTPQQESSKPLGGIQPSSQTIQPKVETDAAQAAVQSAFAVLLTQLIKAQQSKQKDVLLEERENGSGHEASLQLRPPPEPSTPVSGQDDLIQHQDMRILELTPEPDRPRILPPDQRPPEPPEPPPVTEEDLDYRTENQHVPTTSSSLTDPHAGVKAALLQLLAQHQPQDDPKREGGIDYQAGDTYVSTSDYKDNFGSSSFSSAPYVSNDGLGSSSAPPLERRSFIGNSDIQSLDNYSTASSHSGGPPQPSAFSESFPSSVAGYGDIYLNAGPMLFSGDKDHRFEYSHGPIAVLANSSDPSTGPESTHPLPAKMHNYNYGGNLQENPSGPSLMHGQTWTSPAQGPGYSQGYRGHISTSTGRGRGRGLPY", "outline": "(§1)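 Affinity capture: immobilised pyrido[2,3-d]pyrimidine kinase inhibitor, broad selectivity. Specific retention on the resin counted as binding.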"}, "[2]": {"target": "T2, CRK7 (CRKRS, IPI00868781) (Homo sapiens, UniProt Q9NYV4)", "T2 construct": "endogenous in cells; host or cells: HeLa S3 cell lysate", "T2 sequence (Q9NYV4 whole entry)": "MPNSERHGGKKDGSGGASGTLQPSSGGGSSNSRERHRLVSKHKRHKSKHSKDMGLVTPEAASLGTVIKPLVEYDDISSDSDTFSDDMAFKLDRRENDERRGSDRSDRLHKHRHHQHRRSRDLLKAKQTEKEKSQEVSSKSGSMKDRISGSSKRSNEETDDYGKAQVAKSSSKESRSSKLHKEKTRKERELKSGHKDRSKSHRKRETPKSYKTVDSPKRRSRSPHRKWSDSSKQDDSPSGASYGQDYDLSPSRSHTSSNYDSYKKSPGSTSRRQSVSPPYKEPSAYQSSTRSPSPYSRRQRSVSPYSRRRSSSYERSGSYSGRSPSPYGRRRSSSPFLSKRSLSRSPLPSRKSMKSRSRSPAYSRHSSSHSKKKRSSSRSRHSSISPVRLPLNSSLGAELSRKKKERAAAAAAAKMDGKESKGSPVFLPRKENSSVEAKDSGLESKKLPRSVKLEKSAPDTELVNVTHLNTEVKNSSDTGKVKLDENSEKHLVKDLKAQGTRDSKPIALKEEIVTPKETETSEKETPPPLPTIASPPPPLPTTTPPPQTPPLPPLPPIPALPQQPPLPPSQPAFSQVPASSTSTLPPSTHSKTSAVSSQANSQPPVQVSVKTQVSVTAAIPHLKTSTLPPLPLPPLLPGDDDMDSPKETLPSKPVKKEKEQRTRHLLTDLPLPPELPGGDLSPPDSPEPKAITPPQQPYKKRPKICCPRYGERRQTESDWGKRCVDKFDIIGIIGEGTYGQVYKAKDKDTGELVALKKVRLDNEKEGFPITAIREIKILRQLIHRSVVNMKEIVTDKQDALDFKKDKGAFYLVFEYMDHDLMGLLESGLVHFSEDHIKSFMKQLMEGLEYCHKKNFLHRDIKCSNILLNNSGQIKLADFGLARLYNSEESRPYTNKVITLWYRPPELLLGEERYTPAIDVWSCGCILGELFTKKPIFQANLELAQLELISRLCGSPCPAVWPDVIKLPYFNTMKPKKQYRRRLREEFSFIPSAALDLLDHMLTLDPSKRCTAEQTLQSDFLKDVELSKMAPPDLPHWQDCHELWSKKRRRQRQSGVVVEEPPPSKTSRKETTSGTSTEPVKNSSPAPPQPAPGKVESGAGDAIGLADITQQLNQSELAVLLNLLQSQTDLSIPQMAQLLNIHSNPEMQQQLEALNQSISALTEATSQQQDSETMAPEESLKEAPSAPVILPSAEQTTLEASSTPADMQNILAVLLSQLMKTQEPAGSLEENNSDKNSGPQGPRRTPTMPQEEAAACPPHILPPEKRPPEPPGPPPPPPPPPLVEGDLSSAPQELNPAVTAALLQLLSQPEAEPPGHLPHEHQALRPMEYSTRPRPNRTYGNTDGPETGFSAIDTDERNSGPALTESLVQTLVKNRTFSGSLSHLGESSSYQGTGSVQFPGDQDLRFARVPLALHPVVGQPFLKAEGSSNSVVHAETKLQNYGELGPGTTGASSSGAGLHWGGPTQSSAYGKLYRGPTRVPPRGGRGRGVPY", "outline": "as §1"}, "[3]": {"target": "T3, MAP2K2 (IPI00003783) (Homo sapiens, UniProt P36507)", "T3 construct": "endogenous in cells; host or cells: HeLa S3", "T3 sequence (P36507 whole entry)": "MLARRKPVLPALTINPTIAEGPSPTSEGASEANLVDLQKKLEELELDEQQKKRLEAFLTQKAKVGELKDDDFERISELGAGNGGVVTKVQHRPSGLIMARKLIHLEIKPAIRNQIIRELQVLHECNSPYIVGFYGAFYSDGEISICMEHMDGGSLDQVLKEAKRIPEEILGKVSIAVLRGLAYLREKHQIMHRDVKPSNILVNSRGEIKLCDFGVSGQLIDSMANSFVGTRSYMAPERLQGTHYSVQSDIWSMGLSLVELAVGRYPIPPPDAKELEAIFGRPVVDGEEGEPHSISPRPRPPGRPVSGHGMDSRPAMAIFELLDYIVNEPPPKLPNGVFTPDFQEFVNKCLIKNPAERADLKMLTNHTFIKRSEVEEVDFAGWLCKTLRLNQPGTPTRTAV", "outline": "as §1"}, "[4]": {"target": "T4, MAP2K3 (IPI00218858) (Homo sapiens, UniProt P46734)", "T4 construct": "endogenous in cells; host or cells: HeLa S3", "T4 sequence (P46734 1-347)": "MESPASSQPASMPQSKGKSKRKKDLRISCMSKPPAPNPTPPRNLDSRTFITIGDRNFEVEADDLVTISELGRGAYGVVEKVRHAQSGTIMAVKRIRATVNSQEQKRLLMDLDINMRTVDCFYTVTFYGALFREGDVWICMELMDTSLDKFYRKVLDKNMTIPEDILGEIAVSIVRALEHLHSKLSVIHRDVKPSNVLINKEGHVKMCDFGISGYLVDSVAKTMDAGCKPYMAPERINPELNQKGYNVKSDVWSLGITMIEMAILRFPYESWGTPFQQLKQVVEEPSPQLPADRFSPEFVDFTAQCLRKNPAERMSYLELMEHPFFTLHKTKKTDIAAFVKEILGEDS", "outline": "as §1"}, "[5]": {"target": "T5, MASTL (IPI00074258) (Homo sapiens, UniProt Q96GX5)", "T5 construct": "endogenous in cells; host or cells: HeLa S3", "T5 sequence (Q96GX5 1-879)": "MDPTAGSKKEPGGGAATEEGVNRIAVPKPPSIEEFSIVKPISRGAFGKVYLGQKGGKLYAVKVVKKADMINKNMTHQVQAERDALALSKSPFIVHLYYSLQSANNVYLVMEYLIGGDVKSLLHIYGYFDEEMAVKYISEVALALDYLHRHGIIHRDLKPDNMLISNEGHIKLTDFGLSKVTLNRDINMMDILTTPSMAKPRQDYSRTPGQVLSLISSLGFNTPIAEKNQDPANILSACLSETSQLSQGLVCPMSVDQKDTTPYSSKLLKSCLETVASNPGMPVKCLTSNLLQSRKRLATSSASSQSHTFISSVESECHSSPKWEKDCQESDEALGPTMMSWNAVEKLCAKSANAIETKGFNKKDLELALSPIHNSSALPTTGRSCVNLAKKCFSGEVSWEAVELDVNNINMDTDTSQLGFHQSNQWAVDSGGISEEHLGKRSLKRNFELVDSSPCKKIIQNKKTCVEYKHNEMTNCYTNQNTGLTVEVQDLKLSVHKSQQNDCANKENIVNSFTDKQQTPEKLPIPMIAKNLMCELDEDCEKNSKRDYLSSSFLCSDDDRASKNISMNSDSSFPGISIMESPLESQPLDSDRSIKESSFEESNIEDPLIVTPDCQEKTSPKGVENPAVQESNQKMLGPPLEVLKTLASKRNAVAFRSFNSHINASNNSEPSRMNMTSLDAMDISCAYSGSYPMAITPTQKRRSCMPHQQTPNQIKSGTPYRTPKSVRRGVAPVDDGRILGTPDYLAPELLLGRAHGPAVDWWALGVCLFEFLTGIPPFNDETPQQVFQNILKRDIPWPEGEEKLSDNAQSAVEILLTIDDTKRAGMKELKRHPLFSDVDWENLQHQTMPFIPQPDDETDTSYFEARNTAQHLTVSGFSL", "outline": "as §1"}, "[6]": {"target": "T6, SART3 (IPI00006025) (Homo sapiens, UniProt Q15020)", "T6 construct": "endogenous in cells; host or cells: HeLa S3", "T6 sequence (Q15020 1-963)": "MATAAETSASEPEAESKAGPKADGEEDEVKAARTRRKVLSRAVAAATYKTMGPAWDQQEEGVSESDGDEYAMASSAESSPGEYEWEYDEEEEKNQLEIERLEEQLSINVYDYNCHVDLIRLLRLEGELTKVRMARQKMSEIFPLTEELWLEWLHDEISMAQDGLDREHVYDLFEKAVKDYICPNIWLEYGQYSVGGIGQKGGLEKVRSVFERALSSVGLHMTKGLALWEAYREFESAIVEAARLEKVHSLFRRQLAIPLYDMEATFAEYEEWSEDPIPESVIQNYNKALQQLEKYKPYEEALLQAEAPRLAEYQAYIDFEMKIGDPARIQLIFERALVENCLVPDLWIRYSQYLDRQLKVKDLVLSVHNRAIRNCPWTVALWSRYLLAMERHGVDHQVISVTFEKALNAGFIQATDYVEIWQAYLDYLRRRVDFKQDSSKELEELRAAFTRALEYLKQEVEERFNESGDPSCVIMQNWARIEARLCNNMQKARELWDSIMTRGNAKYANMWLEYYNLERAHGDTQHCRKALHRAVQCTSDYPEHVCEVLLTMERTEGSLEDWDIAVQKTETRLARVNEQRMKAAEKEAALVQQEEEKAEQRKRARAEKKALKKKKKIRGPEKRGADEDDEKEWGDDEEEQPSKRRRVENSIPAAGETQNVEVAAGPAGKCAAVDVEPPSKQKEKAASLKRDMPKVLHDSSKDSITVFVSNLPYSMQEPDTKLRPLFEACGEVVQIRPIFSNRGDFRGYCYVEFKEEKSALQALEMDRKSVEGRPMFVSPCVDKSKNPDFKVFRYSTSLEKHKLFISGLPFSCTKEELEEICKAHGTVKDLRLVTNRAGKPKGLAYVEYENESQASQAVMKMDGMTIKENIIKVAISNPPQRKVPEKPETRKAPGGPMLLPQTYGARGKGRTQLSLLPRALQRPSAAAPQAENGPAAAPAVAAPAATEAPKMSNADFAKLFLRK", "outline": "as §1"}, "[7]": {"conditions": "control beads vs first incubation"}},
  "data": [
    {"smiles": "CC(C)n1c(=O)ccc2cnc(Nc3ccc(OCCN)cc3)nc21", "note": "[V16742]", "values": [
      {"measurement": "r (3 MG/1 MG LYSATE)", "setting": "[1]; 3 mg vs 1 mg lysate", "value": 5.31},
      {"measurement": "r (5 h/2.5 h INC. TIME)", "setting": "[1]; 5 h vs 2.5 h incubation time", "value": 1.42},
      {"measurement": "rAVERAGE (CTRL/1 INC)", "setting": "[1]; [7]", "value": 0.05},
      {"measurement": "Ki", "setting": "[1]; immobilized VI16742", "value": 84.6, "unit": "µM"},
      {"measurement": "rAVERAGE (2 INC/1 INC)", "setting": "[1]; second vs first incubation", "value": 0.62},
      {"measurement": "r (3 MG/1 MG LYSATE)", "setting": "[2]; 3 mg vs 1 mg lysate", "value": 3.21},
      {"measurement": "r (5 h/2.5 h INC. TIME)", "setting": "[2]; 5 h vs 2.5 h incubation time", "value": 1.04},
      {"measurement": "rAVERAGE (CTRL/1 INC)", "setting": "[2]; [7]", "value": 0.07},
      {"measurement": "Ki", "setting": "[2]; immobilized VI16742", "value": 90.7, "unit": "µM"},
      {"measurement": "rAVERAGE (2 INC/1 INC)", "setting": "[2]; second vs first incubation", "value": 0.64},
      {"measurement": "r (5 h/2.5 h INC. TIME)", "setting": "[3]; 5 h vs 2.5 h incubation time", "value": 2.03},
      {"measurement": "rAVERAGE (CTRL/1 INC)", "setting": "[3]; [7]", "value": 0.03},
      {"measurement": "Ki", "setting": "[3]; immobilized VI16742", "value": 177, "unit": "µM"},
      {"measurement": "rAVERAGE (2 INC/1 INC)", "setting": "[3]; second vs first incubation", "value": 0.77},
      {"measurement": "r (5 h/2.5 h INC. TIME)", "setting": "[4]; 5 h vs 2.5 h incubation time", "value": 1.60},
      {"measurement": "rAVERAGE (CTRL/1 INC)", "setting": "[4]; [7]", "value": 0.05},
      {"measurement": "Ki", "setting": "[4]; immobilized VI16742", "value": 150, "unit": "µM"},
      {"measurement": "rAVERAGE (2 INC/1 INC)", "setting": "[4]; second vs first incubation", "value": 0.74},
      {"measurement": "rAVERAGE (CTRL/1 INC)", "setting": "[5]; [7]", "value": 0.09},
      {"measurement": "Ki", "setting": "[5]; immobilized VI16742", "value": 109, "unit": "µM"},
      {"measurement": "rAVERAGE (2 INC/1 INC)", "setting": "[5]; second vs first incubation", "value": 0.68},
      {"measurement": "r (3 MG/1 MG LYSATE)", "setting": "[6]; 3 mg vs 1 mg lysate", "value": 2.07},
      {"measurement": "r (5 h/2.5 h INC. TIME)", "setting": "[6]; 5 h vs 2.5 h incubation time", "value": 0.90},
      {"measurement": "rAVERAGE (CTRL/1 INC)", "setting": "[6]; [7]", "value": 0.05},
      {"measurement": "Ki", "setting": "[6]; immobilized VI16742", "value": 126, "unit": "µM"},
      {"measurement": "rAVERAGE (2 INC/1 INC)", "setting": "[6]; second vs first incubation", "value": 0.71}
    ]}
  ]
}
